Legend:
GPR52 [1] = molecular target: T1, GPR52 (Homo sapiens, UniProt Q9Y2T5); test: intracellular cAMP HTRF assay; assay type: cell-based
GPR52 [2] = molecular target: T1, GPR52; test: inhibition of WO-[…])-stimulated cAMP; assay type: cell-based

T1 sequence (Q9Y2T5 whole entry): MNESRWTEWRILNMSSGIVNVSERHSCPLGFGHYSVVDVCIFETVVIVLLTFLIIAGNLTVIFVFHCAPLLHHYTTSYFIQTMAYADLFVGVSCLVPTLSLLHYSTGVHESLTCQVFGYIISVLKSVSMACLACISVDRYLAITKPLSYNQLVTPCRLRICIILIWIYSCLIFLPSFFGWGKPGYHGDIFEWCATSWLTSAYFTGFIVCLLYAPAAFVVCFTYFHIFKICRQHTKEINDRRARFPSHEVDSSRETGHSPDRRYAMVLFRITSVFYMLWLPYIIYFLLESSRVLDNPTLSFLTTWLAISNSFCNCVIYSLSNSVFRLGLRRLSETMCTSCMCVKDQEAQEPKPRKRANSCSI

Row | Compound | EC50 (GPR52 [1]) | IC50 (GPR52 [2])
1 | Cc1nn(-c2cccc3cc(Cc4cccc(C(F)(F)F)c4)sc23)cc1C(=O)NCCO [WO-459, N-(2-hydroxyethyl)-3-methyl-1-[2-[3-(trifluoromethyl)benzyl]benzothiophen-7-yl]-1H-pyrazole-4-carboxamide] | 0.006 ± 0.0007 µM | 
2 | C=C1C(=O)O[C@@H]2/C=C(\C)CC3C=C(C[C@H](OC(=O)/C(C)=C\C)[C@@H]12)C(=O)O3 (mixture of isomers) [E7, (3S,4R,8R,9E)-10-methyl-5-methylidene-6,14-dioxo-7,13-dioxatricyclo[10.2.1.0⁴,⁸]pentadeca-1(15),9-dien-3-yl (2Z)-2-methylbut-2-enoate] |  | 12 ± 0.7 µM

Source: paper PMC5972579 (Brain, 2018)
